The values below come from US20230151003A1, “COMPOUNDS AND METHODS OF USE” (Exelixis, Inc., priority 2020, published 2023).

Structures are written as SMILES.

What is called IC50 is the concentration that gives 50% inhibition.

Sequence of KDR (P35968 20-1356): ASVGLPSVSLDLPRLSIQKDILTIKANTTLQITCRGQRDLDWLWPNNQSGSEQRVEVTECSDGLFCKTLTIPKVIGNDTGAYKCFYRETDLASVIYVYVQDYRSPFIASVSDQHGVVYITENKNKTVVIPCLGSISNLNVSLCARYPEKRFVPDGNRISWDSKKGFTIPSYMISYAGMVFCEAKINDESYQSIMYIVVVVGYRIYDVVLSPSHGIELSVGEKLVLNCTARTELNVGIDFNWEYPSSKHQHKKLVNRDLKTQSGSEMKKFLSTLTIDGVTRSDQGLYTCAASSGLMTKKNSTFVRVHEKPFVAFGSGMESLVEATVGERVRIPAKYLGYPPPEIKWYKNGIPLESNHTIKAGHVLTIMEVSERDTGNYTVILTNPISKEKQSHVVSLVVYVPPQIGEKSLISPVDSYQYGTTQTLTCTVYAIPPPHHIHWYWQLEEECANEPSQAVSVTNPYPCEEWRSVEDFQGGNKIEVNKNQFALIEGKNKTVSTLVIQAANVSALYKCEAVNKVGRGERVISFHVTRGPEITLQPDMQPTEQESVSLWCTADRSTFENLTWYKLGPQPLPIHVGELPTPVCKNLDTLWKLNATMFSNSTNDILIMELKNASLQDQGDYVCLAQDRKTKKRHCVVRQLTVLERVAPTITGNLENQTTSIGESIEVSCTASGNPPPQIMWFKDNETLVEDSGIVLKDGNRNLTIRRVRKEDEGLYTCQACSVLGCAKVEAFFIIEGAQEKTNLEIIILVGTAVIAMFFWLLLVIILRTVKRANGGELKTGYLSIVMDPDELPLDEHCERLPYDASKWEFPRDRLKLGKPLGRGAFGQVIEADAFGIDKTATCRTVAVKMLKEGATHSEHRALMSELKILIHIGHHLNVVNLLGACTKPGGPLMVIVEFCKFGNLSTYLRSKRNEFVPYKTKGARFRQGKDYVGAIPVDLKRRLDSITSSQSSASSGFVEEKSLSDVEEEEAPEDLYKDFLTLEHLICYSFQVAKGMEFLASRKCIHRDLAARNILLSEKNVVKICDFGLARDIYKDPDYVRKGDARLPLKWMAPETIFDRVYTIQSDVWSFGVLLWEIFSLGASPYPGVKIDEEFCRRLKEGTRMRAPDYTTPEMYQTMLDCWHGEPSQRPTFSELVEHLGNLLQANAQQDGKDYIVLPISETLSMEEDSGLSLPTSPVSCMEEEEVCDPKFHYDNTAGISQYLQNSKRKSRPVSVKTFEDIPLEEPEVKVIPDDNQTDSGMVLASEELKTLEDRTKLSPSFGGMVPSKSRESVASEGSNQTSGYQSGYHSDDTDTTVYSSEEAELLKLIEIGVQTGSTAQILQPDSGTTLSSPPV

This test concerns the target KDR (Homo sapiens, UniProt P35968). In words: KDR autophosphorylation ELISA in HUVEC cells. In kind it is cell-based. The arrangement: endogenous in cells; host or cells: HUVEC (Lonza #C2519A). Particulars: Table 3 Cellular Activities, VEGF165-stimulated, phospho-KDR ELISA. In a few lines:
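Inhibition of VEGF165-induced KDR phosphorylation was determined in serum-starved HUVEC after 1 h compound pretreatment and 5 min stimulation with 100 ng/mL VEGF165. Lysate phospho-KDR was measured by ELISA; IC50 values came from a 4-parameter logistic fit of 8-point curves.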
In general terms: An ELISA detects its analyte on a solid surface through an enzyme-linked reagent.
As to `COCc1nc(C)c(-c2cccs2)c(O)c1C(=O)Nc1ccc(Oc2ccnc3cc(OC)c(OC)nc23)c(F)c1` [Compound 115, N-[4-[(6,7-Dimethoxy-1,5-naphthyridin-4-yl)oxy]-3-fluorophenyl]-4-hydroxy-2-(methoxymethyl)-6-methyl-5-thiophen-2-ylpyridine-3-carboxamide], the IC50 was no more than 100 nM.

On to `C=Cc1ccc(-c2c(C)ncc(C(=O)Nc3ccc(Oc4ccnc5cc(OC)c(OC)nc45)c(F)c3)c2O)o1` [Compound 151, N-[4-[(6,7-Dimethoxy-1,5-naphthyridin-4-yl)oxy]-3-fluorophenyl]-5-(5-ethenylfuran-2-yl)-4-hydroxy-6-methylpyridine-3-carboxamide], for which the IC50 is no more than 100 nM.

As to `COc1cc2nccc(Oc3ccc(NC(=O)c4c(C)ncc(-c5cccs5)c4O)cc3F)c2nc1OC` [Compound 123, N-[4-[(6,7-Dimethoxy-1,5-naphthyridin-4-yl)oxy]-3-fluorophenyl]-4-hydroxy-2-methyl-5-thiophen-2-ylpyridine-3-carboxamide], the IC50 was no more than 100 nM.

Take `COc1cc2nccc(Oc3ccc(NC(=O)c4cnc(C)c(-c5ccc(C)s5)c4O)cc3F)c2nc1OC` [Compound 94, N-[4-[(6,7-Dimethoxy-1,5-naphthyridin-4-yl)oxy]-3-fluoro-phenyl]-4-hydroxy-6-methyl-5-(5-methyl-2-thienyl) pyridine-3-carboxamide]: the IC50 was no more than 100 nM.

Take `COc1cc2nccc(Oc3ccc(NC(=O)c4c(C)n(C)c(C)c(-c5ccco5)c4=O)cc3)c2nc1OC` [Compound 164, N-[4-[(6,7-Dimethoxy-1,5-naphthyridin-4-yl)oxy]phenyl]-5-(furan-2-yl)-1,2,6-trimethyl-4-oxopyridine-3-carboxamide]: the IC50 fell in the range of 300 to 1000 nM.

`COc1cnc2c(Oc3ccc(NC(=O)c4cn(CCF)c(C)c(-c5cccs5)c4=O)cc3F)ccnc2c1` [Compound 331, 1-(2-Fluoroethyl)-N-[3-fluoro-4-[(7-methoxy-1,5-naphthyridin-4-yl)oxy]phenyl]-6-methyl-4-oxo-5-thiophen-2-ylpyridine-3-carboxamide] showed an IC50 of 300 to 1000 nM.

`COc1cnc2c(Oc3ccc(NC(=O)c4cn(CCF)c(C)c(-c5ccc(C)s5)c4=O)cc3F)ccnc2c1` [Compound 329, 1-(2-Fluoroethyl)-N-[3-fluoro-4-[(7-methoxy-1,5-naphthyridin-4-yl)oxy]phenyl]-6-methyl-5-(5-methylthiophen-2-yl)-4-oxopyridine-3-carboxamide] displayed an IC50 of 300 to 1000 nM.

As for `COc1cc2nccc(Oc3ccc(NC(=O)c4c(C)nc(C)c(-c5cc(C(F)(F)F)nn5C)c4O)cc3F)c2nc1OC` [Compound 138], the IC50 is no more than 100 nM.

The compound `COCc1nc(C)c(-c2ccc(C)o2)c(O)c1C(=O)Nc1ccc(Oc2ccnc3cc(OC)c(OC)nc23)c(F)c1` [Compound 117, N-[4-[(6,7-Dimethoxy-1,5-naphthyridin-4-yl)oxy]-3-fluorophenyl]-4-hydroxy-2-(methoxymethyl)-6-methyl-5-(5-methylfuran-2-yl)pyridine-3-carboxamide] returned an IC50 of no more than 100 nM.

For the compound `COc1cc2nccc(Oc3ccc(NC(=O)c4cnc(C)c(-c5cc(C)cs5)c4O)cc3F)c2nc1OC` [Compound 91, N-[4-[(6,7-Dimethoxy-1,5-naphthyridin-4-yl)oxy]-3-fluoro-phenyl]-4-hydroxy-6-methyl-5-(4-methyl-2-thienyl) pyridine-3-carboxamide], the IC50 was no more than 100 nM.

As to `COc1cc2nccc(Oc3ccc(NC(=O)c4c(C)n(C)c(C)c(-c5ccco5)c4=O)cc3F)c2nc1OC` [Compound 160, N-[4-[(6,7-Dimethoxy-1,5-naphthyridin-4-yl)oxy]-3-fluorophenyl]-5-(furan-2-yl)-1,2,6-trimethyl-4-oxopyridine-3-carboxamide], the half-maximal inhibitory concentration (IC50) is 100 to 300 nM.

On to `CCc1ccc(-c2c(C)ncc(C(=O)Nc3ccc(Oc4ccnc5cc(OC)c(OC)nc45)c(F)c3)c2O)o1` [Compound 153, N-[4-[(6,7-Dimethoxy-1,5-naphthyridin-4-yl)oxy]-3-fluorophenyl]-5-(5-ethylfuran-2-yl)-4-hydroxy-6-methylpyridine-3-carboxamide], for which the IC50 is no more than 100 nM.

Compound `COc1cc2nccc(Oc3ccc(NC(=O)c4cnc(C)c(-c5ccsc5)c4O)cc3F)c2nc1OC` [Compound 93, N-[4-[(6,7-Dimethoxy-1,5-naphthyridin-4-yl)oxy]-3-fluoro-phenyl]-4-hydroxy-6-methyl-5-(3-thienyl)pyridine-3-carboxamide] returned an IC50 of no more than 100 nM.

Take `COc1cnc2c(Oc3ccc(NC(=O)c4cnc(C)c(-c5ccoc5)c4O)cc3F)ccnc2c1` [Compound 99, N-[3-Fluoro-4-[(7-methoxy-1,5-naphthyridin-4-yl)oxy]phenyl]-5-(3-furyl)-4-hydroxy-6-methyl-pyridine-3-carboxamide]: the IC50 is no more than 100 nM.

On to `COc1cc2nccc(Oc3ccc(NC(=O)c4c(C)n(C)c(C)c(-c5cccs5)c4=O)cc3F)c2nc1OC` [Compound 168, N-[4-[(6,7-Dimethoxy-1,5-naphthyridin-4-yl)oxy]-3-fluorophenyl]-1,2,6-trimethyl-4-oxo-5-thiophen-2-ylpyridine-3-carboxamide], for which the IC50 is no more than 100 nM.

Take `COc1cc2nccc(Oc3ccc(NC(=O)c4c(C)ncc(-c5sccc5C)c4O)cc3F)c2nc1OC` [Compound 126, N-[4-[(6,7-Dimethoxy-1,5-naphthyridin-4-yl)oxy]-3-fluorophenyl]-4-hydroxy-2-methyl-5-(3-methylthiophen-2-yl)pyridine-3-carboxamide]: the concentration for half-maximal inhibition (IC50) was no more than 100 nM.

Take `COc1cc2nccc(Oc3ccc(NC(=O)c4c(C)ncc(-c5ccc(C)o5)c4O)cc3F)c2nc1OC` [Compound 120, N-[4-[(6,7-Dimethoxy-1,5-naphthyridin-4-yl)oxy]-3-fluorophenyl]-4-hydroxy-2-methyl-5-(5-methylfuran-2-yl)pyridine-3-carboxamide]: the IC50 was no more than 100 nM.

With `COc1cc2nccc(Oc3ccc(NC(=O)c4c(C)nc(C)c(-c5ccc(C)s5)c4O)cc3F)c2nc1OC` [Compound 111, N-[4-[(6,7-Dimethoxy-1,5-naphthyridin-4-yl)oxy]-3-fluoro-phenyl]-4-hydroxy-2,6-dimethyl-5-(5-methyl-2-thienyl)pyridine-3-carboxamide], the IC50 is no more than 100 nM.

With `COc1ccc2nccc(Oc3ccc(NC(=O)c4cnc(C)c(-c5cccs5)c4O)cc3F)c2n1` [Compound 128, N-[3-Fluoro-4-[(6-methoxy-1,5-naphthyridin-4-yl)oxy]phenyl]-4-hydroxy-6-methyl-5-thiophen-2-ylpyridine-3-carboxamide], the IC50 is no more than 100 nM.

`COc1cc2nccc(Oc3ccc(NC(=O)c4cnc(C)c(-c5ccoc5)c4O)cc3F)c2nc1OC` [Compound 95, N-[4-[(6,7-Dimethoxy-1,5-naphthyridin-4-yl)oxy]-3-fluoro-phenyl]-5-(3-furyl)-4-hydroxy-6-methyl-pyridine-3-carboxamide] registered an IC50 of no more than 100 nM.

`COc1cc2nccc(Oc3ccc(NC(=O)c4cnc(C)c(-c5cccs5)c4O)cc3F)c2nc1OC` [Compound 90, N-[4-[(6,7-Dimethoxy-1,5-naphthyridin-4-yl)oxy]-3-fluoro-phenyl]-4-hydroxy-6-methyl-5-(2-thienyl)pyridine-3-carboxamide] came in with an IC50 of no more than 100 nM.

`COc1cc2nccc(Oc3ccc(NC(=O)c4cnc(C)c(-c5cc(C(F)(F)F)nn5C)c4O)cc3F)c2nc1OC` [Compound 105] came in with an IC50 of no more than 100 nM.

With `COc1cc2nccc(Oc3ccc(NC(=O)c4c(C)nc(C)c(-c5sccc5C)c4O)cc3F)c2nc1OC` [Compound 139, N-[4-[(6,7-Dimethoxy-1,5-naphthyridin-4-yl)oxy]-3-fluorophenyl]-4-hydroxy-2,6-dimethyl-5-(3-methylthiophen-2-yl)pyridine-3-carboxamide], the IC50 was no more than 100 nM.

In turn, `COc1cc2nccc(Oc3ccc(NC(=O)c4c(C)nc(C)c(-c5ccco5)c4O)cc3F)c2nc1OC` [Compound 135, N-[4-[(6,7-Dimethoxy-1,5-naphthyridin-4-yl)oxy]-3-fluorophenyl]-5-(furan-2-yl)-4-hydroxy-2,6-dimethylpyridine-3-carboxamide] registered an IC50 of no more than 100 nM.

`COc1cc2nccc(Oc3ccc(NC(=O)c4c(C)nc(C)c(-c5ccc(C6CC6)o5)c4O)cc3F)c2nc1OC` [Compound 155B, 5-(5-Cyclopropylfuran-2-yl)-N-[4-[(6,7-dimethoxy-1,5-naphthyridin-4-yl)oxy]-3-fluorophenyl]-4-hydroxy-2,6-dimethylpyridine-3-carboxamide] yielded an IC50 of no more than 100 nM.

On to `COCc1nc(C)c(-c2ccccn2)c(O)c1C(=O)Nc1ccc(Oc2ccnc3cc(OC)c(OC)nc23)c(F)c1` [Compound 195, N-[4-[(6,7-Dimethoxy-1,5-naphthyridin-4-yl)oxy]-3-fluorophenyl]-4-hydroxy-2-(methoxymethyl)-6-methyl-5-pyridin-2-ylpyridine-3-carboxamide], for which the IC50 is no more than 100 nM.

Turning to `COc1cc2nccc(Oc3ccc(NC(=O)c4cnc(C)c(-c5ccnn5C)c4O)cc3F)c2nc1OC` [Compound 104], the IC50 is no more than 100 nM.

For the compound `COc1cnc2c(Oc3ccc(NC(=O)c4cnc(C)c(-c5ccc(C)s5)c4O)cc3F)ccnc2c1` [Compound 101, N-[3-Fluoro-4-[(7-methoxy-1,5-naphthyridin-4-yl)oxy]phenyl]-4-hydroxy-6-methyl-5-(5-methyl-2-thienyl) pyridine-3-carboxamide], the IC50 is no more than 100 nM.

`COc1nc2c(Oc3ccc(NC(=O)c4c(C)n(C)c(C)c(-c5ccco5)c4=O)cc3F)ccnc2cc1OCCC1CCC1` [Compound 337, N-[4-[[7-(2-Cyclobutylethoxy)-6-methoxy-1,5-naphthyridin-4-yl]oxy]-3-fluorophenyl]-5-(furan-2-yl)-1,2,6-trimethyl-4-oxopyridine-3-carboxamide]: the concentration for half-maximal inhibition (IC50) was no more than 100 nM.
